Counter-ions that a name gives are not always drawn.
Experiments:
[1] = Solubility in water / aqueous media and dissolution rate; type: physicochemical; details: for solubility: water / aqueous media
[2] = Feasibility pK rat study (LAI potential of aqueous micro-suspensions, IM); type: in vivo; details: 50 mg/kg, aqueous micro-suspension 125 mg/mL; for long-acting release profile (yes/no): citrate buffer pH 5, FIG. 9
Protocol: For this study, aqueous micro-suspensions of Selexipag, {4-[(5,6-diphenylpyrazin-2-yl)(propan-2-yl)amino]butoxy}acetic acid and calcium; {4-[(5,6-diphenylpyrazin-2-yl)(propan-2-yl)amino]butoxy}acetate were prepared. An overview of the design of the study can be found in Table 1.
Release profiles and mean AUC of the different formulations are depicted in FIG. 9.

[3] = test system: pulmonary arterial hypertension; details: phase III, patients with pulmonary arterial hypertension; cited from earlier work
[4] = Physical stability of solid form on storage (7 days, humidity); type: physicochemical
[5] = Hygroscopicity (change in mass between 0 and 90% RH); type: physicochemical
[6] = 7 days storage at 25° C./97% RH
[7] = 7 days storage at 40° C./75% RH

Compound: CC(C)N(CCCCOCC(=O)O)c1cnc(-c2ccccc2)c(-c2ccccc2)n1 [Selexipag metabolite, 2-(4-((5,6-diphenylpyrazin-2-yl)(isopropyl)amino)butoxy)acetic acid]
- dissolution rate [1]: high
- solubility [1]: high
- long-acting release profile (yes/no) [2]: did not demonstrate a long-acting release profile

Compound: CC(C)N(CCCCOCC(=O)NS(C)(=O)=O)c1cnc(-c2ccccc2)c(-c2ccccc2)n1 [Selexipag, 2-{4-[(5,6-diphenylpyrazin-2-yl)(propan-2-yl)amino]butoxy}-N-(methanesulfonyl)acetamide]
- dissolution rate [1]: high
- solubility [1]: high
- long-acting release profile (yes/no) [2]: did not demonstrate a long-acting release profile
- risk of the primary composite end point of death or a complication related to pulmonary arterial hypertension vs placebo [3]: significantly lower

Compound: Calcium; {4-[(5,6-diphenylpyrazin-2-yl)(propan-2-yl)amino]butoxy}acetate [Amorphous Form]
- physical stability after storage [4, 6]: physically stable
- physical stability after storage [4, 7]: physically stable

Compound: CC(C)N(CCCCOCC(=O)O)c1cnc(-c2ccccc2)c(-c2ccccc2)n1 [Ca-salt of ACT-333679, calcium; {4-[(5,6-diphenylpyrazin-2-yl)(propan-2-yl)amino]butoxy}acetate]
- solubility ([1]; listed as calcium salt of selexipag metabolite): low solubility in water
- solubility ([1]; {4-[(5,6-diphenylpyrazin-2-yl)(propan-2-yl)amino]butoxy}acetate): low solubility in aqueous media
- duration of long-acting release profile ([2]; FIG. 9): up to 336 hours
- time until which AUC increases ([2]; FIG. 9): ≤ 720 h
- plasma concentrations compared to both other groups ([2]; PVP K17 citrate buffer, FIG. 9): significant lower plasma concentrations

Compound: calcium; {4-[(5,6-diphenylpyrazin-2-yl)(propan-2-yl)amino]butoxy}acetate [Form 2]
- physical stability after storage [4, 6]: physically stable
- physical stability after storage [4, 7]: physically stable
- hygroscopicity [5]: slightly hygroscopic
- reversible change in mass ([5]; between 0 and 90% RH): 2%

Reference: US20240425463A1, “PROCESS FOR MANUFACTURING A DIPHENYLPHRAZINE DERIVATIVE” (ACTELION PHARMACEUTICALS LTD, priority 2021, published 2024)
